According to PMC9133015 (Nature Communications, 2022):
Several values for one entry are separate records, joined by “and”; a condition that tells them apart may be missing. Identical values can stand only once. Like-named read-outs stand apart in the source and are kept apart here.

What was measured:
Assay in all cases: Kinase inhibitor specificity profiling (Reaction Biology Corporation)
Type in all cases: biochemical
Set-up in all cases: % Enzyme Activity (relative to DMSO controls): concentration or dose not given beside the values
[1] = target: T1, panel of 370 protein kinases (Homo sapiens, UniProt P36507); conditions: 2 h, kinase MEK2; read-out: % Enzyme Activity (relative to DMSO controls)
T1 construct: purchased Reaction Biology Corporation (assay service)

[2] = target: T2, panel of 370 protein kinases (Homo sapiens, UniProt P78368); conditions: kinase CK1g2
T2 construct: purchased Reaction Biology Corporation (assay service)

[3] = target: T3, panel of 370 protein kinases (Homo sapiens, UniProt Q09013); conditions: 2 h, kinase DMPK; read-out: % Enzyme Activity (relative to DMSO controls)
T3 construct: purchased Reaction Biology Corporation (assay service)

[4] = target: T4, panel of 370 protein kinases (Homo sapiens, UniProt P04629); conditions: 2 h, kinase TRKA; read-out: % Enzyme Activity (relative to DMSO controls)
T4 construct: purchased Reaction Biology Corporation (assay service)

[5] = target: T5, panel of 370 protein kinases (Homo sapiens, UniProt P49761); conditions: 2 h, kinase CLK3; read-out: % Enzyme Activity (relative to DMSO controls)
T5 construct: purchased Reaction Biology Corporation (assay service)

[6] = target: T6, panel of 370 protein kinases (Homo sapiens, UniProt P35916); conditions: 2 h, kinase FLT4/VEGFR3; read-out: % Enzyme Activity (relative to DMSO controls)
T6 construct: purchased Reaction Biology Corporation (assay service)

[7] = target: T7, panel of 370 protein kinases (Homo sapiens, UniProt P24941)
T7 construct: purchased Reaction Biology Corporation (assay service)

[8] = target: T8, panel of 370 protein kinases (Homo sapiens, UniProt Q12866); conditions: 2 h, kinase c-MER; read-out: % Enzyme Activity (relative to DMSO controls)
T8 construct: purchased Reaction Biology Corporation (assay service)

[9] = target: T9, panel of 370 protein kinases (Homo sapiens, UniProt O75460); conditions: 2 h, kinase ERN1/IRE1; read-out: % Enzyme Activity (relative to DMSO controls)
T9 construct: purchased Reaction Biology Corporation (assay service)

[10] = target: T10, panel of 370 protein kinases (Homo sapiens, UniProt P17948); conditions: 2 h, kinase FLT1/VEGFR1; read-out: % Enzyme Activity (relative to DMSO controls)
T10 construct: purchased Reaction Biology Corporation (assay service)

[11] = target: T11, panel of 370 protein kinases (Homo sapiens, UniProt P49336); conditions: kinase CDK8/cyclin C
T11 construct: purchased Reaction Biology Corporation (assay service)

[12] = target: T12, panel of 370 protein kinases (Homo sapiens, UniProt Q00526)
T12 construct: purchased Reaction Biology Corporation (assay service)

[13] = target: T13, panel of 370 protein kinases (Homo sapiens, UniProt Q96L34); conditions: kinase MARK4
T13 construct: purchased Reaction Biology Corporation (assay service)

[14] = target: T14, panel of 370 protein kinases (Homo sapiens, UniProt Q8N4C8); conditions: 2 h, kinase MINK/MINK1; read-out: % Enzyme Activity (relative to DMSO controls)
T14 construct: purchased Reaction Biology Corporation (assay service)

[15] = target: T15, panel of 370 protein kinases (Homo sapiens, UniProt Q14164); conditions: 2 h, kinase IKKe/IKBKE; read-out: % Enzyme Activity (relative to DMSO controls)
T15 construct: purchased Reaction Biology Corporation (assay service)

[16] = target: T16, panel of 370 protein kinases (Homo sapiens, UniProt P50750); conditions: 2 h, read-out: % Enzyme Activity (relative to DMSO controls)
T16 construct: purchased Reaction Biology Corporation (assay service)

[17] = target: T17, panel of 370 protein kinases (Homo sapiens, UniProt O15111); conditions: 2 h, kinase IKKa/CHUK; read-out: % Enzyme Activity (relative to DMSO controls)
T17 construct: purchased Reaction Biology Corporation (assay service)

[18] = target: T18, panel of 370 protein kinases (Homo sapiens, UniProt Q9BXA6); conditions: 2 h, kinase SSTK/TSSK6; read-out: % Enzyme Activity (relative to DMSO controls)
T18 construct: purchased Reaction Biology Corporation (assay service)

[19] = target: T19, panel of 370 protein kinases (Homo sapiens, UniProt Q05397); conditions: 2 h, kinase FAK/PTK2; read-out: % Enzyme Activity (relative to DMSO controls)
T19 construct: purchased Reaction Biology Corporation (assay service)

[20] = target: T20, panel of 370 protein kinases (Homo sapiens, UniProt Q13163); conditions: 2 h, kinase MEK5; read-out: % Enzyme Activity (relative to DMSO controls)
T20 construct: purchased Reaction Biology Corporation (assay service)

[21] = target: T21, panel of 370 protein kinases (Homo sapiens, UniProt O14733); conditions: kinase MKK7
T21 construct: purchased Reaction Biology Corporation (assay service)
T21 sequence (O14733 whole entry): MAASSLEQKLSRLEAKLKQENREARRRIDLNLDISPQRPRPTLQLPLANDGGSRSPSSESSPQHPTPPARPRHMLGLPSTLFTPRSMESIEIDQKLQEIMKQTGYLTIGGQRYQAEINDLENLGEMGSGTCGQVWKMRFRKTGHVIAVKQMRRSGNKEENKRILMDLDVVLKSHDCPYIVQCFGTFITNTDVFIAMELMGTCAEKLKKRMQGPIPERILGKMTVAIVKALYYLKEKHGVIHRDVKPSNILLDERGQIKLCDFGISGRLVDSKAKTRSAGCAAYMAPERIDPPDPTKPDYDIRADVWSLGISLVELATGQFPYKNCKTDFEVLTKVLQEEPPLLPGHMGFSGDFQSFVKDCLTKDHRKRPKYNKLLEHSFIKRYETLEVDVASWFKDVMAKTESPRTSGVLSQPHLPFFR

T12 sequence (Q00526 whole entry): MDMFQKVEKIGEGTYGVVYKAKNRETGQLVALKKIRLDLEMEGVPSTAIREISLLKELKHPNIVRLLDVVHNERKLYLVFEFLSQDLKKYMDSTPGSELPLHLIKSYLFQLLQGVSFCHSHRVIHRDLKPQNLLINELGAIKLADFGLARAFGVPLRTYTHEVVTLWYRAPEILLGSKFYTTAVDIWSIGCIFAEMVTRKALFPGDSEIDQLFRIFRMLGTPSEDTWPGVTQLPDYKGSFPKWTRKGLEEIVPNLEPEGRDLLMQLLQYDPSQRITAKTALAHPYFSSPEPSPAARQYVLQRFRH
T16 sequence (P50750 whole entry): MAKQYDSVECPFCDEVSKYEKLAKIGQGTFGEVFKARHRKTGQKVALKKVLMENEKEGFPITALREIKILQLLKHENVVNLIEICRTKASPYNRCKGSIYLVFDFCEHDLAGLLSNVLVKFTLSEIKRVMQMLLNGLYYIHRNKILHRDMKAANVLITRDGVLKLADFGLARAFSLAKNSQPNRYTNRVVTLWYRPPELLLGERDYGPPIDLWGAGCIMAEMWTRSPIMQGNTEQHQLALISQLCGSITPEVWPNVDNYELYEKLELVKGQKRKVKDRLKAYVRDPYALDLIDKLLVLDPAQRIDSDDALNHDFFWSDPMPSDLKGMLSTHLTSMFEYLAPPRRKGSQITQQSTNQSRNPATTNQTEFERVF
T11 sequence (P49336 whole entry): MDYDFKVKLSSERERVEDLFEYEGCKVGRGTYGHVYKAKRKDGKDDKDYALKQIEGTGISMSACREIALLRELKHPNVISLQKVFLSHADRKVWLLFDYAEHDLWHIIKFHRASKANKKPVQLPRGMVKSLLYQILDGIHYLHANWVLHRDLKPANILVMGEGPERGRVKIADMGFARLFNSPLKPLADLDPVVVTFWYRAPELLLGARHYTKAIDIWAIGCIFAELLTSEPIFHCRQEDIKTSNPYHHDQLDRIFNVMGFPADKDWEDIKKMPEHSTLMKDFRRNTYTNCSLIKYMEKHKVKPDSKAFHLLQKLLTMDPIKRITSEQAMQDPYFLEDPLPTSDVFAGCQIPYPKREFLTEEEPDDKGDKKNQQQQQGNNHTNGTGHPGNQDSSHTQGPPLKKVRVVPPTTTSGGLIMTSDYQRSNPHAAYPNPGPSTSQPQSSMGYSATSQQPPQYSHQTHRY
T13 sequence (Q96L34 whole entry): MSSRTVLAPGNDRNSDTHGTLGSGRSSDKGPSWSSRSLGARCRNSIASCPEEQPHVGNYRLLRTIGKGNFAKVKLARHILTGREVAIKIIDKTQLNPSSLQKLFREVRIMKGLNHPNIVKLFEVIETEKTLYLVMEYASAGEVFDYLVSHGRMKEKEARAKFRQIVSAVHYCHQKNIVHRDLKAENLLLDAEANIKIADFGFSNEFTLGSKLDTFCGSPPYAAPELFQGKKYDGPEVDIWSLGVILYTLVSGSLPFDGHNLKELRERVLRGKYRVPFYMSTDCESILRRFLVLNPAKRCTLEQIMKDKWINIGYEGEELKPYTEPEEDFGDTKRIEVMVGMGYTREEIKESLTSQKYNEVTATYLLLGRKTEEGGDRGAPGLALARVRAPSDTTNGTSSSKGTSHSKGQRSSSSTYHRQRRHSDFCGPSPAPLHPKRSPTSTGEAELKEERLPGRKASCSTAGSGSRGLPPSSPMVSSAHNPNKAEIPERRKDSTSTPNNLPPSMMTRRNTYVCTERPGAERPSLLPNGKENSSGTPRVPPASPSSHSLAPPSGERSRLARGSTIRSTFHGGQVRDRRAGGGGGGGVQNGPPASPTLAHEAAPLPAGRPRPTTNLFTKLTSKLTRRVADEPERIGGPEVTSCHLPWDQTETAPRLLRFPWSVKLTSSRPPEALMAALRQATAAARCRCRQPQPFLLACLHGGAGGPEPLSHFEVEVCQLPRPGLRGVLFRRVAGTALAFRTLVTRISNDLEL
T2 sequence (P78368 whole entry): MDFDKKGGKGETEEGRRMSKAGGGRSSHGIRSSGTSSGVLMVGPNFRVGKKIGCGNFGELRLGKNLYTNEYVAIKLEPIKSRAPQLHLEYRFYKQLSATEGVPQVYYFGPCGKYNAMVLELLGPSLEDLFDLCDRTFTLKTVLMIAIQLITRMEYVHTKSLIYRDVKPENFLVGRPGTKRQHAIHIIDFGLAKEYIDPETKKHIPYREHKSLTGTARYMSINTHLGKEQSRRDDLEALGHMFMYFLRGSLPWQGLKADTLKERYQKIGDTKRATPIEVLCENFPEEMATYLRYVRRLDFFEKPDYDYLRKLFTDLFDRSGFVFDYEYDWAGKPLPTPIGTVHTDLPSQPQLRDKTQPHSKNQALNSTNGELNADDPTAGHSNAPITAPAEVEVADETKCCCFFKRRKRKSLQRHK
T19 sequence (Q05397 whole entry): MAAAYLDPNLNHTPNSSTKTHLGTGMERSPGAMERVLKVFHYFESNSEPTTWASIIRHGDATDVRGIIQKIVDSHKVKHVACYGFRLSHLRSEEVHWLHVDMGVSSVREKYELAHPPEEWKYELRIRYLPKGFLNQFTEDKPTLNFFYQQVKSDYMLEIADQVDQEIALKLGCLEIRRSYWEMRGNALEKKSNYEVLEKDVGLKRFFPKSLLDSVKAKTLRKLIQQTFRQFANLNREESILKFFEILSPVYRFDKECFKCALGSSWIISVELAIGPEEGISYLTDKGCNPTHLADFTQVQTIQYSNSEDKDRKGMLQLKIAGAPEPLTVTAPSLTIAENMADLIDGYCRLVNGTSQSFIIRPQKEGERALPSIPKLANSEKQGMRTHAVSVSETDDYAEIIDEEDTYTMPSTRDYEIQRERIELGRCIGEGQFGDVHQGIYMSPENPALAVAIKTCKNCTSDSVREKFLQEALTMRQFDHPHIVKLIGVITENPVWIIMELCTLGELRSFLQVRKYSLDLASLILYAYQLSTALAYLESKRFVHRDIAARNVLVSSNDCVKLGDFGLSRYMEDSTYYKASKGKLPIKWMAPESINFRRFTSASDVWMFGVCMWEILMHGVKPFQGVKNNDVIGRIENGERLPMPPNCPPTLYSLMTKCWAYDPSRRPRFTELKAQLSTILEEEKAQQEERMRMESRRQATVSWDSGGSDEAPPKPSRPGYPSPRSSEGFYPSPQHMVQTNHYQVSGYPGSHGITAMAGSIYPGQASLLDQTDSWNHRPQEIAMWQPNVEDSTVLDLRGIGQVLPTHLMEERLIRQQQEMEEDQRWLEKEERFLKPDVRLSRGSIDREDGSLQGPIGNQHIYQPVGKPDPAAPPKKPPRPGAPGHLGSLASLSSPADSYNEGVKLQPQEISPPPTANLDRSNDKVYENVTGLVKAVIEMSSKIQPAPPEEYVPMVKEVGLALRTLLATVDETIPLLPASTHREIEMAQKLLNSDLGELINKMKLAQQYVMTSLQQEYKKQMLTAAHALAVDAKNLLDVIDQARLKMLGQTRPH
T15 sequence (Q14164 whole entry): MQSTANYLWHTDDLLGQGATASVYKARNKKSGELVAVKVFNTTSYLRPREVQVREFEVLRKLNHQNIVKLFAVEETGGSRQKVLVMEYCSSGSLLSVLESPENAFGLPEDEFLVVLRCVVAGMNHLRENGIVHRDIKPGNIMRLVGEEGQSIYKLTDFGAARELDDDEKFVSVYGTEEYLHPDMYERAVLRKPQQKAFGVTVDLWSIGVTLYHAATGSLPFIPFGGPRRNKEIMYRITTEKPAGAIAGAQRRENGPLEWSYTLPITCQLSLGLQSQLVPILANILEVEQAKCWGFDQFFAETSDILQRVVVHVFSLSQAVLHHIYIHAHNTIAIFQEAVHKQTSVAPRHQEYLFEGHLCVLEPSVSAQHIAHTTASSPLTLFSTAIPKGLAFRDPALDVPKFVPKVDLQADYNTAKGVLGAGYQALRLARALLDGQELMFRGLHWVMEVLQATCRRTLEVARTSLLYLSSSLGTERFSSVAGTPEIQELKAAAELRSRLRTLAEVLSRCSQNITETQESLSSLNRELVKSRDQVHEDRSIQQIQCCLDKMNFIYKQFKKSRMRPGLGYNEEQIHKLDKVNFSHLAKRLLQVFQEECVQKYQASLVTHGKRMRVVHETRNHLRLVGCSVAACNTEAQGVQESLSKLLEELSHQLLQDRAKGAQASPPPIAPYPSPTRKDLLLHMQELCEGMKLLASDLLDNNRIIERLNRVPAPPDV
T1 sequence (P36507 whole entry): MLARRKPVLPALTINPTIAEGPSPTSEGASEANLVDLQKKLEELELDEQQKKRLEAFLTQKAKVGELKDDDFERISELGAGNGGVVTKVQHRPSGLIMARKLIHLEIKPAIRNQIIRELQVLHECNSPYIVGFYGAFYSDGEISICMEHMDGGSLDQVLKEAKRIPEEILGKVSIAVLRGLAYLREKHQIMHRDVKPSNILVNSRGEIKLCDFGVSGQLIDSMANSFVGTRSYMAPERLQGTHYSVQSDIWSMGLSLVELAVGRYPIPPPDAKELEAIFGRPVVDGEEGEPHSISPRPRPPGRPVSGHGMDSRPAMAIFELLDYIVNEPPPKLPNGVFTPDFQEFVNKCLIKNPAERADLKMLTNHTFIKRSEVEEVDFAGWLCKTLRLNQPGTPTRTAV

`CCN1CCN(C(=O)c2ccc(Nc3ncc(F)c(-c4ccc5nc(N(C)C)sc5c4)n3)nc2)CC1` [YK-2-69] was tested. Which remaining activity at 1 µM [1] did it give?
The remaining activity at 1 µM was 97.4%.

And the “% Enzyme Activity (relative to DMSO controls)” value [2]?
The value was 92.19% and 91.13%.

And the remaining activity at 1 µM [3]?
Its remaining activity at 1 µM is 95.8%.

And the remaining activity at 1 µM [4]?
Its remaining activity at 1 µM is 104%.

What about the remaining activity at 1 µM [5] of the same molecule?
The remaining activity at 1 µM was 80.5%.

And the remaining activity at 1 µM [6]?
Its remaining activity at 1 µM is 75.2%.

What about the “% Enzyme Activity (relative to DMSO controls)” value ([7]; kinase CDK2/CYCLIN A) of the same molecule?
Its value is 90.79% and 87.87%.

And the “% Enzyme Activity (relative to DMSO controls)” value ([7]; kinase CDK2/CYCLIN E)?
The value was 95.30% and 94.87%.

And the “% Enzyme Activity (relative to DMSO controls)” value ([7]; kinase CDK2/Cyclin A1)?
Its value is 80.25% and 75.26%.

What about the “% Enzyme Activity (relative to DMSO controls)” value ([7]; kinase CDK2/cyclin E2) of the same molecule?
The value was 104.31% and 100.73%.

And the “% Enzyme Activity (relative to DMSO controls)” value ([7]; kinase CDK2/cyclin O)?
Its value is 78.97% and 75.52%.

And the remaining activity at 1 µM [8]?
Its remaining activity at 1 µM is 96.8%.

What about the remaining activity at 1 µM [9] of the same molecule?
Its remaining activity at 1 µM is 89.3%.

And the remaining activity at 1 µM [10]?
Its remaining activity at 1 µM is 101%.

And the “% Enzyme Activity (relative to DMSO controls)” value [11]?
Its value is 57.28% and 56.07%.

What about the “% Enzyme Activity (relative to DMSO controls)” value ([12]; kinase CDK3/cyclin E) of the same molecule?
Its value is 106.69% and 103.49%.

What about the “% Enzyme Activity (relative to DMSO controls)” value ([12]; kinase CDK3/cyclin E2) of the same molecule?
The value was 101.82% and 90.67%.

What about the “% Enzyme Activity (relative to DMSO controls)” value [13] of the same molecule?
The value was 79.55% and 79.20%.

And the remaining activity at 1 µM [14]?
The remaining activity at 1 µM was 100%.

And the remaining activity at 1 µM [15]?
The remaining activity at 1 µM was 98.5%.

What about the remaining activity at 1 µM ([16]; kinase CDK9/CYCLIN K) of the same molecule?
Its remaining activity at 1 µM is 96.3%.

What about the remaining activity at 1 µM ([16]; kinase CDK9/cyclin T1) of the same molecule?
Its remaining activity at 1 µM is 90.8%.

And the remaining activity at 1 µM ([16]; kinase CDK9/cyclin T2)?
The remaining activity at 1 µM was 96.8%.

What about the remaining activity at 1 µM [17] of the same molecule?
Its remaining activity at 1 µM is 77.1%.

And the remaining activity at 1 µM [18]?
Its remaining activity at 1 µM is 107%.

What about the remaining activity at 1 µM [19] of the same molecule?
The remaining activity at 1 µM was 95.9%.

What about the remaining activity at 1 µM [20] of the same molecule?
The remaining activity at 1 µM was 96.3%.

What about the “% Enzyme Activity (relative to DMSO controls)” value [21] of the same molecule?
Its value is 97.65% and 97.50%.
